How the values were obtained:
Format in all cases: cell-based
[1] = system: HIV-1 reference strain NL4-3; assay: MonoCycle assay (TZM-bl cells); conditions: Human immunodeficiency virus 1, NL43, TZM-bl, 48 h, read-out: Mono Cycle IC50 nM
Protocol: MonoCycle assay is a cell based assay allowing the evaluation of antiviral activity of HIV-1 inhibitors targeting the early steps of HIV-1 life cycle such as entry, uncoating of viral particles, reverse transcription and integration. The assay consists in the infection of TZM-bl cells (20,000/well) with the HIV-1 reference strain NL4-3 in presence of serial five-fold dilutions of the investigational inhibitors. After 48 hours, cells were lysed adding 40 µl of Glo Lysis Buffer (Promega) to each well for 5 minutes, then 40 µl of Brighy-Glo Luciferase Reagent (Promega) were added to each well for relative luminescence units (RLU) counting using Glo-Max Multi Detection System (Promega). RLU values from each well were elaborated using the GraphPad v5.0 software to calculate the IC50 of each compound.

[2] = system: HIV-1 reference strain NL4-3; assay: BiCycle assay (MT-2 then TZM-bl cells)
Protocol: BiCycle Assay is cell based assay allowing the evaluation of the antiviral activity of HIV-1 inhibitors on the whole replication cycle of HIV-1. The assay consists in a first round of infection of the T-cell line MT-2 followed by infection of TZM-bl cells. MT-2 cells were seeded at a concentration of 50,000 cells/well in a 96-well plate and infected with the HIV-1 reference strain NL4-3 in presence of five-fold dilutions of the investigational compounds. After 72 hours, 50 µl of supernatant from each well, containing the virus produced in the first round of infection, were used to infect TZM-bl cells seeded in a 96-plate well at a concentration of 30,000 cells/well. Two days later, cells were lysed adding 40 µl of Glo Lysis Buffer (Promega) to each well for 5 minutes, then 40 µl of Brighy-Glo Luciferase Reagent (Promega) were added to each well for relative luminescence units (RLU) counting using Glo-Max Multi Detection System (Promega). RLU values from each well were elaborated using the GraphPad v5.0 software to calculate the IC50 of each compound.

[3] = system: Peripheral blood mononuclear cells (PBMC); conditions: human, 7 days
Protocol: Peripheral blood mononuclear cells (PBMC) obtained from healthy donors by separation over Ficoll-Hypaque (GEHealthear-Cat.# GEH17-1440-02) were suspended at 2x10^6 cells/mL in RPMI 1640 (Biowest-Cat.#L0501-500) supplemented with 10% of heat-inactivated sterile fetal bovine serum (Gibco-Cat.#10270-106), 2 mmol/l L-glutamine (Biowest-Cat.#X0550-100), 50 U/mL Penicillin-50 µg/mL Streptomycin (Biowest-Cat.#L0022-100), referred to as complete medium (CM). PBMC were supplemented with 5 µg/mL of phytohaemagglutinin (Sigma Aldr-Cat.#L1668) and cultured in 75 cm^2 flasks (Sarsted-Cat.#833.911.002) for 2 days at 37 °C in a humidified atmosphere with 5% CO2.
PBMC were then washed in CM, counted by trypan blue exclusion (Gibco-Cat. #15250-061), centrifuged and suspended in fresh CM supplemented with 20 IU/mL recombinant human IL-2 (Miltenyi Biotec-Cat.#130-097-748) and seeded in a 96-well-tissue culture plate (Sarsted-Ca#831.837) at the density of 5x10^5 cells/mL (or 1x10^5 cells in 200 µL final CM volume per well). Cells were left untreated (negative control) or treated with different concentrations of the compounds.
After 7 days of incubation cytotoxicity was determined using Promega's CellTiter 96(R) AQueous One Solution Cell Proliferation Assay (MTS assay) (Promega-Cat.#G3581) according to the manufacturer's instuctions. This is a colorimetric method for determining the number of viable cells in proliferation or cytotoxicity assays. The MTS tetrazolium compound is bioreduced by cells into a colored formazan product that is soluble in tissue culture medium. This conversion is presumably accomplished by NADPH or NADH produced by dehydrogenase enzymes in metabolically active cells.
Briefly, MTS solution was thawed at room temperature, or in a water bath at 37 °C and 40 µL of MTS solution was pipeted into each well of the 96-well assay plate containing the samples in 200 µL of culture medium and incubated at 37 °C, 5% CO2 for 4 hours. The optical density was read at 490 nm using a 96-well plate reader (Tecan Infinite F50) and TD50 (toxic dose 50%, dose killing 50% of the cells compared to untreated control) value was calculated by interpolation of the curve obtained by plotting dose against percent mortality and by using "Magellan data analysis software". CM alone plus MTS solution was used as a blank, and cell culture well without compound was used as a cellular control.

[4] = Human immunodeficiency virus 1, NL43, TZM-bl, read-out: BiCycle IC50 nM
[5] = Human immunodeficiency virus 1, NL43, MT-2 cells 72 hours then TZM-bl cells two days, NL4-3, read-out: BiCycle IC50

Row | SMILES | IC50 [1] [nM] | IC50 [2, 4] [nM] | Proliferation assay PBMC TD50 [3] [µM] | IC50 [2, 5] [nM] | EC50 ([2]; Human immunodeficiency virus 1, NL43, TZM-bl, read-out: Mean EC50 (nM)) [nM] | TD50 [3] [µM]
1 | O=C(NCC1CCCCC1)c1nc(-c2ccccn2)nc(O)c1O [Compound 1, N-(cyclohexylmethyl)-5,6-dihydroxy-2-(pyridin-2-yl)pyrimidine-4-carboxamide] | > 50000 | 1210 | 2.6 |  |  | 
2 | O=C(OCC1CCCCC1)c1nc(-c2ccccn2)nc(O)c1O [Compound 2, cyclohexylmethyl 5,6-dihydroxy-2-(pyridin-2-yl)pyrimidine-4-carboxylate] | > 50000 | 1780 | 6 |  |  | 
3 | O=C(NCC1CC1)c1nc(-c2ccccn2)nc(O)c1O [Compound 3, N-(cyclopropylmethyl)-5,6-dihydroxy-2-(pyridin-2-yl)pyrimidine-4-carboxamide] | 27400 | 1410 | 6 |  |  | 
4 | O=C(NC1CCCCC1)c1nc(-c2ccccn2)nc(O)c1O [Compound 4, N-cyclohexyl-5,6-dihydroxy-2-(pyridin-2-yl)pyrimidine-4-carboxamide] | > 50000 | 461 | 4.8 |  |  | 
5 | C[C@@H](NC(=O)c1nc(-c2ccccn2)nc(O)c1O)C1CCCCC1 [Compound 5, (R)-N-(1-cyclohexylethyl)-5,6-dihydroxy-2-(pyridin-2-yl)pyrimidine-4-carboxamide] | 2490 | 702 | 3 |  |  | 
6 | O=C(NCCC1CCCCC1)c1nc(-c2ccccn2)nc(O)c1O [Compound 6, N-(2-cyclohexylethyl)-5,6-dihydroxy-2-(pyridin-2-yl)pyrimidine-4-carboxamide] | 4300 | 2260 | 10.48 |  |  | 
7 | CN1CCCC(CNC(=O)c2nc(-c3ccccn3)nc(O)c2O)C1 (stereo not drawn) [Compound 7, 5,6-dihydroxy-N-((1-methylpiperidin-3 - yl)methyl)-2-(pyridin-2-yl)pyrimidine-4-carboxamide] | > 50000 | > 50000 | >50 |  |  | 
8 | O=C(OC1CCCCC1)c1nc(-c2ccccn2)nc(O)c1O [Compound 13, cyclohexyl 5,6-dihydroxy-2-(pyridin-2-yl)pyrimidine-4-carboxylate] |  |  | 16.3 |  |  | 
9 | C[C@@H](NC(=O)c1nc(-c2nc3ccccc3[nH]2)nc(O)c1O)C1CCCCC1 [Compound 29, (R)-2-(1H-benzo[d]imidazol-2-yl)-N-(1-cyclohexylethyl)-5,6-dihydroxypyrimidine-4-carboxamide] |  | 1780 | 1.7 |  |  | 
10 | Cc1ccc(-c2nc(O)c(O)c(C(=O)N[C@H](C)C3CCCCC3)n2)nc1 [Compound 41, (R)-N-(1-cyclohexylethyl)-5,6-dihydroxy-2-(5-methylpyridin-2-yl)pyrimidine-4-carboxamide] |  |  | 2.8 | 298 |  | 
11 | O=C(NCCC1CCCC1)c1nc(-c2ccccn2)nc(O)c1O [Compound 43, N-(2-cyclopentylethyl)-5,6-dihydroxy-2-(pyridin-2-yl)pyrimidine-4-carboxamide] |  |  | 8.09 | 1380 |  | 
12 | C[C@@H](NC(=O)c1nc(-c2cc(C(=O)OCc3ccccc3)ccn2)nc(O)c1O)C1CCCCC1 [Compound 46, benzyl (R)-2-(4-((1-cyclohexylethyl)carbamoyl)-5,6-dihydroxypyrimidin-2-yl)isonicotinate] |  | 543 | 1 |  |  | 
13 | C[C@@H](NC(=O)c1nc(-c2ccc(C(=O)NCc3ccccc3)cn2)nc(O)c1O)C1CCCCC1 [Compound 50, (R)-2-(5-(benzylcarbamoyl)pyridin-2-yl)-N(1-cyclohexylethyl)-5,6-dihydroxypyrimidine-4-carboxamide] |  | 348 | 2.2 |  |  | 
14 | C[C@@H](NC(=O)c1nc(-c2ccc(C(N)=O)cn2)nc(O)c1O)C1CCCCC1 [Compound 51, (R)-2-(5-carbamoylpyridin-2-yl)-N-(1-cyclohexylethyl)-5,6-dihydroxypyrimidine-4-carboxamide] |  | 10600 | 8 |  |  | 
15 | C[C@H](NC(=O)c1nc(-c2cc(C(F)(F)F)ccn2)nc(O)c1O)C1CCCCC1 [Compound 52, (S)-N-(1-cyclohexylethyl)-5,6-dihydroxy-2-(4-(trifluoromethyl)pyridin-2-yl)pyrimidine-4-carboxamide] |  | 433 | 1.2 |  |  | 
16 | C[C@@H](NC(=O)c1nc(-c2cccc(C(=O)OCc3ccccc3)n2)nc(O)c1O)C1CCCCC1 [Compound 54, benzyl (R)-6-(4-((1-cyclohexylethyl)carbamoyl)-5,6-dihydroxypyrimidin-2-yl)picolinate] |  |  | 25 | 422 |  | 
17 | C[C@@H](NC(=O)c1nc(-c2ccc(CO)cn2)nc(O)c1O)C1CCCCC1 [Compound 55, (R)-N-(1-cyclohexylethyl)-5,6-dihydroxy-2-(5-(hydroxymethyl)pyridin-2-yl)pyrimidine-4-carboxamide] | 9050 | 504 |  |  |  | 
18 | CC1CCC(NC(=O)c2nc(-c3ccccn3)nc(O)c2O)CC1 (stereo not drawn) [Compound 56, 5,6-dihydroxy-N-(4-methylcyclohexyl)-2-(pyridin-2-yl)pyrimidine-4-carboxamide] |  | 341 | 4.6 |  |  | 
19 | CC1CCCC(NC(=O)c2nc(-c3ccccn3)nc(O)c2O)C1 (stereo not drawn) [Compound 57, 5,6-dihydroxy-N-(3-methylcyclohexyl)-2-(pyridin-2-yl)pyrimidine-4-carboxamide] |  | 432 | 2.7 |  |  | 
20 | CC1(C)CCC(NC(=O)c2nc(-c3ccccn3)nc(O)c2O)CC1 [Compound 58, N-(4,4-dimethylcyclohexyl)-5,6-dihydroxy-2-(pyridin-2-yl)pyrimidine-4-carboxamide] |  | 268 | 1.6 |  |  | 
21 | COc1ccc2nc(-c3nc(O)c(O)c(C(=O)N[C@H](C)C4CCCCC4)n3)ccc2c1 [Compound 66, (R)-N-(1-cyclohexylethyl)-5,6-dihydroxy-2-(6-methoxyquinolin-2-yl)pyrimidine-4-carboxamide] |  | 1970 | 6.6 |  |  | 
22 | Cc1ccc(-c2nc(O)c(O)c(C(=O)N[C@H](C)C3CCCCC3)n2)nc1C [Compound 67, (R)-N-(1-cyclohexylethyl)-2-(,5,6-dimethylpyridin-2-yl)-5,6-dihydroxypyrimidine-4-carboxamide] |  |  | 6.7 | 1340 |  | 
23 | C[C@H](NC(=O)c1nc(-c2nccc3[nH]ccc23)nc(O)c1O)C1CCCCC1 [Compound 86, (S)-N-(1-cyclohexylethyl)-5,6-dihydroxy-2-(1H-pyrrolo[3,2-c]pyridin-4-yl)pyrimidine-4-carboxamide] | > 50000 | 2280 |  |  |  | 
24 | Cc1nnc(C(=O)NC(C)(C)c2nc(C(=O)NCc3ccc(F)cc3)c(O)c(=O)n2C)o1 [Raltegravir™, Raltegravir, reference compound] |  |  |  |  | 1 | > 50
